Test results taken from patent US20100036088A1, “Selective poly-N-substituted glycine antibiotics” (priority 2008, published 2010).
Numbered stars: 1 amine (or outer) side, 2 acyl side, 3 side chain; on linkers, the order of the positions; unused ones are H or OH. Square brackets hold non-standard residues; d marks the D form. Peptide text beside a SMILES is read from it. X3 = C[C@@H](c1ccc2ccccc2c1)N(CC(=O)[*:2])[*:1]; N(1S-Me-propyl)Gly = CC[C@H](C)NCC(=O)O; X1 = CC(C)[C@H](C)N(CC(=O)[*:2])[*:1]; Nspe = C[C@H](NCC(=O)O)c1ccccc1; Nlys = NCCCCNCC(=O)O

Legend:
[1] = test system: human erythrocytes; test: Hemolysis assay; type: cell-based; details: for HD10 (10% hemolytic dose) / HD50 (50% hemolytic dose): red cells of human, 1 h
Procedure: Hemolysis assays. Erythrocytes were isolated from freshly drawn, heparanized human blood and resuspended to 20 vol % in PBS (pH 7.4). In a 96-well microtiter plate, 100 μL erythrocyte suspension was added to 100 μL peptoid solution in PBS (prepared by 1:2 serial dilutions), or 100 μL PBS in the case of negative controls. 100% hemolysis wells contained 100 μL blood cell suspension with 100 μL 0.2 vol % Triton X-100. The plate was incubated for 1 h at 37° C., then each well was diluted with 150 μL PBS. The plate was then centrifuged at 1200 g for 15 min, 100 μL of the supernatant from each well transferred to a fresh microtiter plate, and A350 measured.
Hemolysis assays. Erythrocytes were isolated from freshly drawn, heparanized human blood and resuspended in PBS (pH 7.4) to make a 20% volume suspension. Peptoid solutions were prepared by serial dilution (2:1) in a 96-well microtiter plate. For test wells, 100 μL of erythrocyte suspension was added to 100 μL of peptoid solution in PBS; PBS without peptoid was used as the negative control and 0.2 vol % Triton X-100 as the positive control that indicates 100% hemolysis. After 1 hour incubation at 37° C., each well was diluted with 150 μL PBS. Plates were then centrifuged at 1,200×g for 15 minutes to pellet the cells. 30 μL of the supernatant from each well were transferred to the corresponding well of a second 96-well plate that contains 70 μL PBS.

[2] = MTS assay, metabolic inhibition; type: cell-based, mouse
Procedure: (§1) The potencies of all compounds were determined against representative Gram-negative (E. coli ATCC 35218) and Gram-positive (B. subtilis ATCC 6633) biosafety level 1 (BSL1) organisms. In addition to hemolytic activity, the conventional measure of toxicity to mammalian cells, the effect of each ampetoid on NIH 3T3 mouse fibroblast cells was determined using the MTS tetrazolium salt-based calorimetric assay. While hemolysis measures the degree to which erythrocytes are lysed, the MTS assay indirectly quantifies the extent to which cellular metabolic activity is inhibited.
MTS assays. NIH/3T3 cells (ATCC Corporation) cultured at 37° C. and 5% CO2 in complete Dulbecco's modified eagle's media (CDMEM) supplemented with 1% sodium pyruvate, 1% penicillin-streptomycin, 1.5 g/L NaHCO3, and 10% fetal bovine serum. Cells were seeded at a density of 5,000 cells per well for NIH/3T3 cells in 96-well plates (100 μl total volume). A peptoid solution plate (100 μL total volume per well) was prepared by serial dilution of aqueous peptoid stock solution in Hank's balanced salt solution (HBSS) media. The day-old cell monolayers were washed with HBSS and media was replaced with 100 μL HBSS. The contents of the peptoid solution plate were transferred onto corresponding wells of the cell monolayer plate, and 40 μL MTS reagent (Promega, Inc.) was added to each well. After incubating for 3 hours at 37° C., absorbance at 490 nm was determined. […] The average of six replicates is reported.

[3] = test system: B. subtilis (ATCC 6633); type: cell-based; details: ATCC 6633
Procedure: (§2) Whereas the preceding generation of molecules was designed to elucidate structure function relationships of specific molecular parameters (chirality, length, hydrophobicity, etc.), another generation compounds were designed explicitly to explore effects on selectivity. Antimicrobial activity of these compounds was tested against bacterial strains E. coli (ATTC 35218) and B. subtilis (ATTC 6633) in cation-adjusted MHB using the microdilution protocols previously described. The sequences, antimicrobial activities, hemolytic activities, and metabolic inhibitory concentrations against NIH 3T3 mouse fibroblast cells are summarized in Table 3 and the rationale of their design is described below.
as §1
(§3) Screening antibacterial assays. MICs were determined in 96-well microtiter plates in accordance with CLSI M7-A6 protocols. Peptoid solutions with 50 μL total volume were prepared using 2:1 serial dilutions. 50 μL of bacteria inoculum (1×10^6 CFU/mL) prepared in cation-adjusted Mueller-Hinton broth (CAMHB) was added to test wells. Control wells contained 100 μL MHB (no growth) or 50 μL inoculums with 50 μL MHB with no peptoid. […] Reported values were reproducible over three experiments, each containing two parallel trials.

[4] = test system: E. coli (ATCC 35218); type: cell-based; details: ATCC 35218
Procedure: as §2, §1, §3

C[C@@H](c1ccccc1)N(CC(N)=O)C(=O)CN(C(=O)CN(C(=O)CN(C(=O)CN(C(=O)CN(C(=O)CN(C(=O)CN(C(=O)CN(CCCCN)C(=O)CN(CCCCN)C(=O)CN(CCCCN)C(=O)CNCCCCN)[C@@H](C)c1ccccc1)[C@@H](C)c1ccccc1)[C@@H](C)c1ccccc1)[C@@H](C)c1ccccc1)[C@@H](C)c1ccccc1)[C@@H](C)c1ccccc1)[C@@H](C)c1ccccc1 [1block, H-(Nlys)4-(Nspe)8-NH2]
HD10 (10% hemolytic dose) [1]: 18 µM | HD50 (50% hemolytic dose) [1]: 73 µM

CC[C@H](C)N(CC(=O)N(CC(=O)N(CC(=O)N(CCCCN)CC(N)=O)[C@@H](C)c1ccccc1)[C@@H](C)CC)C(=O)CN(CCCCN)C(=O)CN(C(=O)CN(CCCCN)C(=O)CN(C(=O)CN(C(=O)CN(C(=O)CN(C(=O)CNCCCCN)[C@@H](C)CC)[C@@H](C)c1ccccc1)[C@@H](C)CC)[C@@H](C)c1ccccc1)[C@@H](C)c1ccccc1 [2scrambled, H-Nlys-Nssb-Nspe-Nssb-Nspe-Nlys-Nspe-Nlys-Nssb-Nssb-Nspe-Nlys-NH2] (H-[Nlys][N(1S-Me-propyl)Gly][Nspe][N(1S-Me-propyl)Gly][Nspe][Nlys][Nspe][Nlys][N(1S-Me-propyl)Gly][N(1S-Me-propyl)Gly][Nspe][Nlys]-NH2)
no hemolysis up to [1]: > 120 µM | HD10 (10% hemolytic dose) [1]: >120/>120 μM | HD50 (50% hemolytic dose) [1]: >120/>120 μM

C[C@@H](c1ccccc1)N(CC(N)=O)C(=O)CN(CCCCN)C(=O)CN(C(=O)CN(C(=O)CN(CCCCN)C(=O)CN(C(=O)CN(C(=O)CN(CCCCN)C(=O)CN(C(=O)CN(C(=O)CNCCCCN)[C@@H](C)c1ccccc1)[C@@H](C)c1ccccc1)[C@@H](C)c1ccccc1)[C@@H](C)c1ccccc1)[C@@H](C)c1ccccc1)[C@@H](C)c1ccccc1 [111mer, H-(Nlys-Nspe-Nspe)3-Nlys-Nspe-NH2] (H-[Nlys][Nspe][Nspe][Nlys][Nspe][Nspe][Nlys][Nspe][Nspe][Nlys][Nspe]-NH2)
HD10 [1]: 103 µM | HD50 [1]: > 200 µM | IC50 [2]: 11 µM

CC[C@H](C)N(CC(=O)N(CC(N)=O)[C@@H](C)c1ccc2ccccc2c1)C(=O)CN(CCCCN)C(=O)CN(C(=O)CN(C(=O)CN(CCCCN)C(=O)CN(C(=O)CN(C(=O)CN(CCCCN)C(=O)CN(C(=O)CN(C(=O)CNCCCCN)[C@@H](C)CC)[C@@H](C)c1ccccc1)[C@@H](C)CC)[C@@H](C)c1ccc2ccccc2c1)[C@@H](C)CC)[C@@H](C)c1ccccc1 [2-Nsna6,12] (H-[Nlys][N(1S-Me-propyl)Gly][Nspe][Nlys][N(1S-Me-propyl)Gly][X3][Nlys][N(1S-Me-propyl)Gly][Nspe][Nlys][N(1S-Me-propyl)Gly][X3]-NH2)
HD10 (10% hemolytic dose) [1]: 55 µM | HD50 (50% hemolytic dose) [1]: > 120 µM

C[C@H](NCC(=O)N(CC(=O)N(CCCCN)CC(=O)N(CC(=O)N(CCCCN)CC(=O)N(CC(=O)N(CCCCN)CC(=O)N(CC(=O)N(CC(=O)N(CC(=O)N(CC(=O)N(CCCCN)CC(N)=O)[C@@H](C)c1ccccc1)[C@@H](C)c1ccccc1)[C@@H](C)c1ccccc1)[C@@H](C)c1ccccc1)[C@@H](C)c1ccccc1)[C@@H](C)c1ccccc1)[C@@H](C)c1ccccc1)c1ccccc1 [1scr, H-(Nspe)2-(Nlys-Nspe)3-(Nspe)3-Nlys-NH2] (H-[Nspe][Nspe][Nlys][Nspe][Nlys][Nspe][Nlys][Nspe][Nspe][Nspe][Nspe][Nlys]-NH2)
HD10 [1]: 64 µM | HD50 [1]: > 200 µM | IC50 [2]: 8.5 µM

C[C@@H](c1ccccc1)N(CC(N)=O)C(=O)CN(C(=O)CN(CCCCN)C(=O)CN(C(=O)CN(C(=O)CN(CCCCN)C(=O)CN(CCc1cnc[nH]1)C(=O)CN(C(=O)CN(CCCCN)C(=O)CN(C(=O)CN(C(=O)CNCCCCN)[C@@H](C)c1ccccc1)[C@@H](C)c1ccccc1)[C@@H](C)c1ccccc1)[C@@H](C)c1ccccc1)[C@@H](C)c1ccccc1)[C@@H](C)c1ccccc1 [1-Nhis6]
HD10 [1]: 170 µM | HD50 [1]: > 200 µM | B. subtilis MIC [3]: 1.6 µM | E. coli MIC [4]: 25 µM

CC(C)[C@H](C)N(CC(=O)N(CCCCN)CC(=O)N(CC(=O)N(CC(=O)N(CCCCN)CC(=O)N(CC(=O)N(CC(=O)N(CCCCN)CC(=O)N(CC(=O)N(CC(N)=O)[C@@H](C)c1ccccc1)[C@@H](C)c1ccccc1)[C@@H](C)C(C)C)[C@@H](C)C(C)C)[C@@H](C)c1ccccc1)[C@@H](C)c1ccccc1)C(=O)CN(C(=O)CNCCCCN)[C@@H](C)C(C)C [1-Nsdp2,3,8,9, H-(Nlys-Nsdp-Nsdp-Nlys-Nspe-Nspe)2-NH2] (H-[Nlys][X1][X1][Nlys][Nspe][Nspe][Nlys][X1][X1][Nlys][Nspe][Nspe]-NH2)
HD10 [1]: 77 µM | HD50 [1]: > 200 µM | IC50 [2]: 19 µM

C[C@@H](c1ccccc1)N(CC(N)=O)C(=O)CN(C(=O)CN(CCC(=O)O)C(=O)CN(C(=O)CN(C(=O)CN(CCCCN)C(=O)CN(C(=O)CN(C(=O)CN(CCC(=O)O)C(=O)CN(C(=O)CN(C(=O)CNCCCCN)[C@@H](C)c1ccccc1)[C@@H](C)c1ccccc1)[C@@H](C)c1ccccc1)[C@@H](C)c1ccccc1)[C@@H](C)c1ccccc1)[C@@H](C)c1ccccc1)[C@@H](C)c1ccccc1 [1-Nglu4,10]
HD10 (10% hemolytic dose) [1]: 19 µM | HD50 (50% hemolytic dose) [1]: 40 µM

C[C@@H](c1ccccc1)N(CC(N)=O)C(=O)CN(Cc1ccccc1)C(=O)CN(CCCCN)C(=O)CN(Cc1ccccc1)C(=O)CN(Cc1ccccc1)C(=O)CN(CCCCN)C(=O)CN(Cc1ccccc1)C(=O)CN(Cc1ccccc1)C(=O)CN(CCCCN)C(=O)CN(Cc1ccccc1)C(=O)CN(Cc1ccccc1)C(=O)CNCCCCN [1ach-Nspe12, H-(Nlys-Npm-Npm)3-(Nlys-Npm-Nspe)-NH2]
HD10 [1]: 164 µM | HD50 [1]: > 200 µM | B. subtilis MIC [3]: 1.6 µM | IC50 [2]: 15 µM

C[C@@H](c1ccccc1)N(CC(N)=O)C(=O)CN(C(=O)CN(CCC(=O)O)C(=O)CN(C(=O)CN(C(=O)CN(CCC(=O)O)C(=O)CN(C(=O)CN(C(=O)CN(CCC(=O)O)C(=O)CN(C(=O)CN(C(=O)CNCCC(=O)O)[C@@H](C)c1ccccc1)[C@@H](C)c1ccccc1)[C@@H](C)c1ccccc1)[C@@H](C)c1ccccc1)[C@@H](C)c1ccccc1)[C@@H](C)c1ccccc1)[C@@H](C)c1ccccc1 [1-Nglu1,4,7,10]
HD50 (50% hemolytic dose) [1]: >110/>110 μM

CC[C@H](C)N(CC(=O)N(CC(N)=O)[C@@H](C)c1ccccc1)C(=O)CN(CCCCN)C(=O)CN(C(=O)CN(C(=O)CN(CCCCN)C(=O)CN(C(=O)CN(C(=O)CN(CCCCN)C(=O)CN(C(=O)CN(C(=O)CNCCCCN)[C@@H](C)CC)[C@@H](C)c1ccccc1)[C@@H](C)CC)[C@@H](C)c1ccccc1)[C@@H](C)CC)[C@@H](C)c1ccccc1 [compound 2, H-(Nlys-Nssb-Nspe)4-NH2] (H-[Nlys][N(1S-Me-propyl)Gly][Nspe][Nlys][N(1S-Me-propyl)Gly][Nspe][Nlys][N(1S-Me-propyl)Gly][Nspe][Nlys][N(1S-Me-propyl)Gly][Nspe]-NH2)
HD10 (10% hemolytic dose) [1]: >120/>120 μM | HD50 (50% hemolytic dose) [1]: >120/>120 μM
